This note sets out measurements from patent US10787447B2, “Pharmaceutical compounds” (Heptares Therapeutics Limited, priority 2018, dated 2020).

Bounds are passed on as bounds.

What all share (format): cell-based
Experiment [1] addresses T1, human muscarinic M1 receptor (Homo sapiens, UniProt P11229).
T1 sequence (P11229 1-460): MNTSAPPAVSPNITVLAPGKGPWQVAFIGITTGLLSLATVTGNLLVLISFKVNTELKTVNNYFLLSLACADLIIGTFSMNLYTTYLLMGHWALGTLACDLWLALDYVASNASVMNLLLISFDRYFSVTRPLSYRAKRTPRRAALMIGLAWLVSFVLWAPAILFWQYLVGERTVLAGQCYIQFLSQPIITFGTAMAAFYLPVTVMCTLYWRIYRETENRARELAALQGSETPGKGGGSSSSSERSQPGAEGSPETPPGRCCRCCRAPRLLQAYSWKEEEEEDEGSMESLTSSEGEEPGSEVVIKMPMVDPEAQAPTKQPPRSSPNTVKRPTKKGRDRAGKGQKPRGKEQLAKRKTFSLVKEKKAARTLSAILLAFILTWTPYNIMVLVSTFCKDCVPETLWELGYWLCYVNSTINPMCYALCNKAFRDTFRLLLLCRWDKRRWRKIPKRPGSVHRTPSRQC
Kind of experiment: Alphascreen Surefire phospho-ERK1/2 functional assay, M1. The following applies: for % Emax cf. ACh, M1: CHO cells stably expressing human M1, Emax relative to ACh; for EC50: pEC50 M1, CHO cells stably expressing human M1, phospho-ERK1/2. As for the experimental part: (§1) Functional assays were performed using the Alphascreen Surefire phospho-ERK1/2 assay (Crouch & Osmond, Comb. Chem. High Throughput Screen, 2008). ERK1/2 phosphorylation is a downstream consequence of both Gq/11 and Gi/o protein coupled receptor activation, making it highly suitable for the assessment of M1, M3 (Gq/11 coupled) and M2, M4 receptors (Gi/o coupled), rather than using different assay formats for different receptor subtypes. CHO cells stably expressing the human muscarinic M1, M2, M3 or M4 receptor were plated (25K/well) onto 96-well tissue culture plates in MEM-alpha+10% dialysed FBS. Once adhered, cells were serum-starved overnight. Agonist stimulation was performed by the addition of 5 μL agonist to the cells for 5 min (37° C.). Media was removed and 50 μL of lysis buffer added. After 15 min, a 4 μL sample was transferred to 384-well plate and 7 μL of detection mixture added.
For the vast majority of examples at least two diastereomers exist and these have been separated, unless otherwise stated, using the techniques of reversed phase HPLC, chiral HPLC or chiral SFC. Isomer assignment (Isomer 1, Isomer 2, etc.) is based on the retention time of the compound using the separation technique that was performed in the final purification step. By implication, this could be reversed phase HPLC, chiral HPLC or chiral SFC retention time, and this will vary from compound to compound.
For orientation: Alpha assays give light when donor and acceptor beads are brought close together.

Experiment [2] addresses T2, human muscarinic M2 receptor (Homo sapiens, UniProt P08172).
T2 sequence (P08172 1-466): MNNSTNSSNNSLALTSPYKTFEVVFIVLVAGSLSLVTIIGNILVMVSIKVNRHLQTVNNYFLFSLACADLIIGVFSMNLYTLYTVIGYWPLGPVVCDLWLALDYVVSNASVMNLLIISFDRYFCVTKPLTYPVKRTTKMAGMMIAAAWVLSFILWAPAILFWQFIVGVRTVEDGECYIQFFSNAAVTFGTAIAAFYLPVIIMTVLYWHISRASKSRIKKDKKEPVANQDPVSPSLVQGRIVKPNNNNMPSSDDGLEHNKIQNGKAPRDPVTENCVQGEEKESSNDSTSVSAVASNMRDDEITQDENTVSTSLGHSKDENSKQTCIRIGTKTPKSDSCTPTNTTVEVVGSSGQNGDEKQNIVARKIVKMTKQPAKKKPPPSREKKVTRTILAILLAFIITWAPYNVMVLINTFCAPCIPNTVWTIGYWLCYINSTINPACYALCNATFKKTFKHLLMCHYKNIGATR
Kind of experiment: Alphascreen Surefire phospho-ERK1/2 functional assay, M2. The following applies: for % Emax cf. ACh, M2: CHO cells stably expressing human M2; for EC50: pEC50 M2, CHO cells stably expressing human M2, phospho-ERK1/2. The protocol: as §1, with “ERK1/2” for “Functional assays were performed using the Alphascreen Surefire phospho-ERK1/2 assay (Crouch & Osmond, Comb. Chem. High Throughput Screen, 2008). ERK1/2”
(§2) Isomer assignment (Isomer 1, Isomer 2, etc.) is based on the retention time of the compound using the separation technique that was performed in the final purification step. By implication, this could be reversed phase HPLC, chiral HPLC or chiral SFC retention time, and this will vary from compound to compound.

The target in experiment [3] is T3, human muscarinic M3 receptor (Homo sapiens, UniProt P20309).
T3 construct: expressed in transfected cells
T3 sequence (P20309 whole entry): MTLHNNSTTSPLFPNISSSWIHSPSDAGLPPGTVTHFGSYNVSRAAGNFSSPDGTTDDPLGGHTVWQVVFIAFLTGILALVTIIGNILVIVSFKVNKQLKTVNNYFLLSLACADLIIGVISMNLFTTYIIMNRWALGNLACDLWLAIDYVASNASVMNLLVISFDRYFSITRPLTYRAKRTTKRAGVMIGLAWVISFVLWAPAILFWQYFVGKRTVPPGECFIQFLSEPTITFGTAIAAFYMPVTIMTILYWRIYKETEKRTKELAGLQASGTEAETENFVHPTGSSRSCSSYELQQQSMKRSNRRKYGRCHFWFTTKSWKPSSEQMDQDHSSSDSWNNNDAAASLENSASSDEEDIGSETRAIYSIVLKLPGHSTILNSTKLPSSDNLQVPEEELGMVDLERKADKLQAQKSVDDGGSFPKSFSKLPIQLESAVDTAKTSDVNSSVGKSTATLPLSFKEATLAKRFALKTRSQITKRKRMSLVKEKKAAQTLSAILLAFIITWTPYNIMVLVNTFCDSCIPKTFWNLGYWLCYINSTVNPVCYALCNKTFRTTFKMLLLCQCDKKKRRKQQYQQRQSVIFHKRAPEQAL
Kind of experiment: Alphascreen Surefire phospho-ERK1/2 functional assay, M3. The following applies: for Emax: CHO, read-out: % Emax cf. ACh, M3, CHO cells stably expressing human M3; for Emax / % Emax cf. ACh, M3: Emax relative to ACh; for EC50: pEC50 M3, CHO cells stably expressing human M3, phospho-ERK1/2; for % Emax cf. ACh, M3: CHO cells stably expressing human M3. As for the experimental part:
as §1, with “ERK1/2” for “Functional assays were performed using the Alphascreen Surefire phospho-ERK1/2 assay (Crouch & Osmond, Comb. Chem. High Throughput Screen, 2008). ERK1/2”
as §2

Experiment [4] deals with T4, human muscarinic M4 receptor (Homo sapiens, UniProt P08173).
T4 sequence (P08173 1-479): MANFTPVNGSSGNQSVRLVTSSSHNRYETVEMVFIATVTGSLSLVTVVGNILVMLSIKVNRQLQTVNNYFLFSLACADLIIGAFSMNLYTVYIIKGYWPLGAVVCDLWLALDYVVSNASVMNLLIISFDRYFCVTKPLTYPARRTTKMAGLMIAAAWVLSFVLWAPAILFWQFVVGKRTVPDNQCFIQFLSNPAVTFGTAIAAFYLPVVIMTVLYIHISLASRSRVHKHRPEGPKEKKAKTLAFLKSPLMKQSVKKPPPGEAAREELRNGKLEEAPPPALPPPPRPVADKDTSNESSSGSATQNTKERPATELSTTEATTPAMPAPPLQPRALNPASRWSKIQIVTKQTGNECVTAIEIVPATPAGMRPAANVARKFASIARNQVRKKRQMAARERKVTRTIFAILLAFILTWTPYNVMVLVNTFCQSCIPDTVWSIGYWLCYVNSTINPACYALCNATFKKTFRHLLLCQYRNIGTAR
Kind of experiment: Alphascreen Surefire phospho-ERK1/2 functional assay, M4. The following applies: for % Emax cf. ACh, M4: CHO cells stably expressing human M4; for EC50: pEC50 M4, CHO cells stably expressing human M4, phospho-ERK1/2. The protocol:
as §1, with “ERK1/2” for “Functional assays were performed using the Alphascreen Surefire phospho-ERK1/2 assay (Crouch & Osmond, Comb. Chem. High Throughput Screen, 2008). ERK1/2”
as §2

[5] abbreviates: Emax relative to ACh, listed as 1-2 Isomer 2.
Where [6] appears, read: Emax relative to ACh, listed as 2-3 Isomer 1.
[7] abbreviates: Emax relative to ACh, listed as 2-3 Isomer 2.

With `CCOC(=O)N1C2COCC1CC(N1CCC(n3cc(Cl)cn3)CC1)C2` (single isomer, unassigned) [Example 1-2 Isomer 2, Ethyl 7-[4-(4-chloro-1H-pyrazol-1-yl)piperidin-1-yl]-3-oxa-9-azabicyclo[3.3.1]nonane-9-carboxylate], the “% Emax cf. ACh, M1” value in experiment [1] (listed as 1-2 Isomer 2) worked out at 67%. Also, the EC50 (as a rule, the midpoint of the concentration-response curve) was 77.6 nM in experiment [1], above 20000 nM in experiment [2], above 20000 nM in experiment [3] and 13.2 nM in experiment [4]. In addition, in experiment [2] (setting [5]), the “% Emax cf. ACh, M2” value is given as 10%. In addition, the Emax (usually the size of the effect at its maximum, as opposed to the concentration needed) in experiment [3] was 2%. The “% Emax cf. ACh, M4” value in experiment [4] (setting [5]) was found to be 51%.

Take `CCOC(=O)N1C2COCC1CC(N1CCC(n3cc(C)cn3)CC1)C2` (single isomer, unassigned) [Example 1-3 Isomer 1, Ethyl 7-[4-(4-methyl-1H-pyrazol-1-yl)piperidin-1-yl]-3-oxa-9-azabicyclo[3.3.1]nonane-9-carboxylate]: the “% Emax cf. ACh, M1” value in experiment [1] (listed as 1-3 Isomer 1) was 124%. Further, the EC50 in experiment [1] was 55 nM; in experiment [2], 282 nM; in experiment [3], 2510 nM; in experiment [4] it was 7.24 nM. Besides, the “% Emax cf. ACh, M2” value in experiment [2] (Emax relative to ACh, listed as 1-3 Isomer 1) is 112%. Besides, the “% Emax cf. ACh, M3” value in experiment [3] (listed as 1-3 Isomer 1) turned out to be 40%. Besides, in experiment [4] (CHO, read-out: % Emax cf. ACh, M4, CHO cells stably expressing human M4, Emax relative to ACh), the Emax came to 99%.

Take `CCOC(=O)N1C2COCC1CC(N1CCC(n3cc(C)cn3)CC1)C2` (single isomer, unassigned) [Example 1-3 Isomer 2, Ethyl 7-[4-(4-methyl-1H-pyrazol-1-yl)piperidin-1-yl]-3-oxa-9-azabicyclo[3.3.1]nonane-9-carboxylate]: in experiment [1] (listed as 1-3 Isomer 2), the “% Emax cf. ACh, M1” value stood at 45%. The EC50 in experiment [1] was 316 nM; in experiment [2] it was above 20000 nM; in experiment [3] it was above 20000 nM; in experiment [4], 112 nM. The “% Emax cf. ACh, M2” value in experiment [2] (Emax relative to ACh, listed as 1-3 Isomer 2) was determined as 11%. For the same molecule, in experiment [3] (listed as 1-3 Isomer 2), the “% Emax cf. ACh, M3” value was determined as 5%. Further, the “% Emax cf. ACh, M4” value in experiment [4] (Emax relative to ACh) amounted to 81%.

Take `CCOC(=O)N1C2COCC1CC(N1CCC(c3cccnc3OC)CC1)C2` (single isomer, unassigned) [Example 2-2 Isomer 1, Ethyl 7-[4-(2-methoxypyridin-3-yl)piperidin-1-yl]-3-oxa-9-azabicyclo[3.3.1]nonane-9-carboxylate]: the “% Emax cf. ACh, M1” value in experiment [1] (listed as 2-2 Isomer 1) stood at 63%. For the same molecule, the EC50 is above 20000 nM in experiment [1], above 20000 nM in experiment [2], above 20000 nM in experiment [3] and 36.3 nM in experiment [4]. The Emax in experiment [2] (CHO, read-out: % Emax cf. ACh, M2, CHO cells stably expressing human M2, Emax relative to ACh) stood at 3%; in experiment [3], 4%. Further, the “% Emax cf. ACh, M4” value in experiment [4] (Emax relative to ACh, listed as 2-2 Isomer 1) worked out at 61%.

Regarding `CCOC(=O)N1C2COCC1CC(N1CCC(c3cccnc3OC)CC1)C2` (single isomer, unassigned) [Example 2-2 Isomer 2, Ethyl 7-[4-(2-methoxypyridin-3-yl)piperidin-1-yl]-3-oxa-9-azabicyclo[3.3.1]nonane-9-carboxylate], the “% Emax cf. ACh, M1” value in experiment [1] (listed as 2-2 Isomer 2) is listed as 10%. Also, the “% Emax cf. ACh, M2” value in experiment [2] (Emax relative to ACh) was determined as 3%. For the same molecule, the “% Emax cf. ACh, M3” value in experiment [3] worked out at 5%. The “% Emax cf. ACh, M4” value in experiment [4] (Emax relative to ACh, listed as 2-2 Isomer 2) was determined as 37%. Further, the EC50 in experiment [4] is 112 nM.

`CCOC(=O)N1C2COCC1CC(N1CCC(c3ccc[nH]c3=O)CC1)C2` (single isomer, unassigned) [Example 2-3 Isomer 1, Ethyl 7-[4-(2-oxo-1,2-dihydropyridin-3-yl)piperidin-1-yl]-3-oxa-9-azabicyclo[3.3.1]nonane-9-carboxylate]: the “% Emax cf. ACh, M1” value in experiment [1] (listed as 2-3 Isomer 1) is listed as 77%. In addition, the EC50 is 195 nM in experiment [1], 288 nM in experiment [2], above 20000 nM in experiment [3] and 6.46 nM in experiment [4]. For the same molecule, in experiment [2] (setting [6]), the “% Emax cf. ACh, M2” value is recorded as 45%. The Emax in experiment [3] turned out to be 9%. Further, in experiment [4] (setting [6]), the “% Emax cf. ACh, M4” value amounted to 99%.

Turning to `CCOC(=O)N1C2COCC1CC(N1CCC(c3ccc[nH]c3=O)CC1)C2` (single isomer, unassigned) [Example 2-3 Isomer 2, Ethyl 7-[4-(2-oxo-1,2-dihydropyridin-3-yl)piperidin-1-yl]-3-oxa-9-azabicyclo[3.3.1]nonane-9-carboxylate], in experiment [1] (listed as 2-3 Isomer 2), the “% Emax cf. ACh, M1” value is reported as 34%. The EC50 in experiment [1] was 174 nM; in experiment [2], above 20000 nM; in experiment [4] it was 11.5 nM. In addition, the “% Emax cf. ACh, M2” value in experiment [2] (setting [7]) is reported as 10%. Further, the “% Emax cf. ACh, M3” value in experiment [3] was determined as 5%. The “% Emax cf. ACh, M4” value in experiment [4] (setting [7]) is recorded as 65%.
